In patent US20250179047A1, “5-[7-(3,4-DIHYDRO-1H-ISOQUINOLINE-2-CARBONYL)-1,2,3,4 TETRAHYDROISOQUINOLIN-6-YL]-1H-PYRROLE-3-CARBOXAMIDE DERIVATIVES, PHARMACEUTICAL COMPOSITIONS CONTAINING THEM AND THEIR USES AS PRO-APOPTOTIC AGENTS” (LES LABORATOIRES SERVIER, priority 2022, published 2025):

How the values were obtained:
KMS-12-PE Bcl-2 WT = assay: In vitro cytotoxicity CellTiter-Glo 48 h, KMS-12-PE Bcl-2 WT; type: cell-based; conditions: Homo sapiens, KMS-12-PE, C50 = concentration needed to reach 50% of the cellular viability
How it was run: (§1)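 Bcl-2 WT- and G101V-expressing KMS-12-PE cells; 48 h treatment at 37 °C, 5% CO2; CellTiter-Glo ATP luminescence; C50 from 11-point curves.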

KMS-12-PE Bcl-2 G101V = assay: In vitro cytotoxicity CellTiter-Glo 48 h, KMS-12-PE Bcl-2 G101V; type: cell-based; conditions: for Ratio (G101V/WT): C50 KMS-12-PE Bcl-2 G101V over C50 KMS-12-PE Bcl-2 WT; for IC50: Homo sapiens, KMS-12-PE, 48 h, CellTiter-Glo, C50 = concentration needed to reach 50% of the cellular viability
How it was run: as §1

BCLXL WT = BCLXL WT (Homo sapiens (Human), UniProt Q07817); assay: TR-FRET competitive binding assay, BCLXL WT; conditions: for Ki: BCLXL WT, Ki determined from IC50, read-out: TR_FRET EKI BclxL; for TR_FRET EKI BCLxL/WT selectivty ratio: ratio Ki BCLxL / Ki BCL2 WT
Sequence of BCLXL WT (Q07817 other isoform, or with tags, fused parts or gaps): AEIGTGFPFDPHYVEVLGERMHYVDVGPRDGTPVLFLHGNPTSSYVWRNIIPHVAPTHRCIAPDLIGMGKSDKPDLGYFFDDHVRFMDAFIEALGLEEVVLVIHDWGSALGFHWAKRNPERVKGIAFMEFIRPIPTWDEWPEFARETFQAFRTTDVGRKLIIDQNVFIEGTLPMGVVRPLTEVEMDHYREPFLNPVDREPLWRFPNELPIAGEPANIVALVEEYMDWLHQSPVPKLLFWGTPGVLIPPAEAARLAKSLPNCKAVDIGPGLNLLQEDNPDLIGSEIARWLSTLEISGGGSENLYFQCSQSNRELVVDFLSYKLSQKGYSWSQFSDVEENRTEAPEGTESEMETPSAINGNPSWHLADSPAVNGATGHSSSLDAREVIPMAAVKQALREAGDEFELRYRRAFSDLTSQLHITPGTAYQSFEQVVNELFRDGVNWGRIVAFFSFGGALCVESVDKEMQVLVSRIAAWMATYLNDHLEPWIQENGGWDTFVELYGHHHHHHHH
How it was run: (§2)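 Competitive TR-FRET displacement of fluorescein-PUMA peptide (2 or 20 nM) from 0.5 nM terbium-labelled N-terminal Halo-fusion BCL2 (1-207, wild type or mutant) or BCLXL (2-196), expressed in E. coli. Buffer 50 mM Hepes pH 7.5, 150 mM NaCl, 5% DMSO; 2 h at 23°C. 520/495 nm ratio fitted over 11 points for IC50, converted to Ki.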

BCL2 D111A = BCL2 D111A (Homo sapiens, UniProt P10415, D111A); assay: TR-FRET competitive binding assay, BCL2 D111A; conditions: Ki determined from IC50, read-out: TR_FRET EKI_Bcl2 D111A
How it was run: as §2

BCL2 D103Y = BCL2 D103Y (Homo sapiens, UniProt P10415, D103Y); assay: TR-FRET competitive binding assay, BCL2 D103Y; conditions: Ki determined from IC50, read-out: TR_FRET EKI_Bcl2 D103Y
How it was run: as §2

BCL2 WT = BCL2 WT (Homo sapiens (Human), UniProt P10415); assay: TR-FRET competitive binding assay, BCL2 WT; conditions: Ki determined from IC50, read-out: TR_FRET EKI_Bcl2 WT
How it was run: as §2

BCL2 F104I = BCL2 F104I (Homo sapiens, UniProt P10415, F104I); assay: TR-FRET competitive binding assay, BCL2 F104I; conditions: Ki determined from IC50, read-out: TR_FRET EKI_Bcl2 F104I
How it was run: as §2

BCL2 G101V [1] = molecular target: BCL2 G101V (Homo sapiens, UniProt P10415, G101V); assay: TR-FRET competitive binding assay, BCL2 G101V; conditions: BCL2 G101V; Ki determined from IC50; read-out: TR_FRET EKI_Bcl2 G101V
How it was run: as §2

BCL2 G101V [2] = assay: TR-FRET competitive binding assay, BCL2 G101V; design: species or system human; conditions: ratio Ki BCL2 G101V / Ki BCL2 WT
How it was run: as §2

Ki (BCLXL WT) [nM] | TR_FRET EKI BCLxL/WT selectivty ratio (BCLXL WT) | Ki (BCL2 D111A) [nM] | Ki (BCL2 D103Y) [nM] | Ki (BCL2 WT) [nM] | Ki (BCL2 F104I) [nM] | Ki (BCL2 G101V [1]) [nM] | TR_FRET EKI G101V/WT selectivty ratio (BCL2 G101V [2]) | SMILES | IC50 (KMS-12-PE Bcl-2 WT) [µM] | Ratio (G101V/WT) (KMS-12-PE Bcl-2 G101V) | IC50 (KMS-12-PE Bcl-2 G101V) [µM]
1.4 | 12.7 | 0.06 | 0.33 | 0.11 | 0.16 | 0.3 | 2.5 | Cc1c(N(C(=O)c2cc(-c3cc4c(cc3C(=O)N3Cc5ccccc5C[C@H]3C)CN(C(=O)Cc3ccc(OCCN5CCN6CCOC[C@@H]6C5)cc3)CC4)n(C)c2C)c2ccc(O)cc2)cc(C#N)n1C [Example 36, 5-{2-[2-(4-{2-[(9aS)-octahydropyrazino[2,1-c][1,4]oxazin-8-yl]ethoxy}phenyl)acetyl]-7-[(3R)-3-methyl-1,2,3,4-tetrahydroisoquinoline-2-carbonyl]-1,2,3,4-tetrahydroisoquinolin-6-yl}-N-(5-cyano-1,2-dimethyl-1H-pyrrol-3-yl)-N-(4-hydroxyphenyl)-1,2-dimethyl-1H-pyrrole-3-carboxamide] | 0.0103 | 3.75 | 0.0386
1.7 | 34.7 | 0.21 | 0.15 | 0.05 | 0.47 | 0.2 | 4.1 | Cc1c(N(C(=O)c2cc(-c3cc4c(cc3C(=O)N3Cc5ccccc5C[C@H]3C)CN(C(=O)Cc3ccc(OCCN5CCO[C@@H](C)C5)cc3)CC4)n(C)c2C)c2ccc(O)cc2)cc(C#N)n1C [Example 57, N-(5-cyano-1,2-dimethyl-1H-pyrrol-3-yl)-N-(4-hydroxyphenyl)-1,2-dimethyl-5-{7-[(3R)-3-methyl-1,2,3,4-tetrahydroisoquinoline-2-carbonyl]-2-(2-{4-[2-((2S)-2-methylmorpholin-4-yl)ethoxy]phenyl}acetyl)-1,2,3,4-tetrahydroisoquinolin-6-yl}-1H-pyrrole-3-carboxamide] | 0.0048 | 4.32 | 0.0208
1.7 | 15.5 | 0.42 | 0.46 | 0.11 | 2.84 | 0.9 | 7.8 | Cc1c(N(C(=O)c2cc(-c3cc4c(cc3C(=O)N3Cc5ccccc5C[C@H]3C)CN(C(=O)Cc3ccc(N5CCC(N6CCOCC6)C5)cc3)CC4)n(C)c2C)c2ccc(O)cc2)cc(C#N)n1C (single isomer, unassigned) [Example 63, N-(5-cyano-1,2-dimethyl-1H-pyrrol-3-yl)-N-(4-hydroxyphenyl)-1,2-dimethyl-5-{7-[(3R)-3-methyl-1,2,3,4-tetrahydroisoquinoline-2-carbonyl]-2-(2-{4-[(3R or S)-3-(morpholin-4-yl)pyrrolidin-1-yl]phenyl}acetyl)-1,2,3,4-tetrahydroisoquinolin-6-yl}-1H-pyrrole-3-carboxamide] | 0.0079 | 5.84 | 0.046
1.6 | 12.3 | 0.23 | 0.42 | 0.13 | 0.37 | 0.5 | 3.9 | Cc1c(N(C(=O)c2cc(-c3cc4c(cc3C(=O)N3Cc5ccccc5C[C@H]3CN3CCC(F)CC3)CN(C(=O)Cc3ccc(OCCN5CCOCC5)cc3F)CC4)n(C)c2C)c2ccc(O)cc2)cc(C#N)n1C [Example 86, N-(5-cyano-1,2-dimethyl-1H-pyrrol-3-yl)-5-[2-(2-{2-fluoro-4-[2-(morpholin-4-yl)ethoxy]phenyl}acetyl)-7-[(3S)-3-[(4-fluoropiperidin-1-yl)methyl]-1,2,3,4-tetrahydroisoquinoline-2-carbonyl]-1,2,3,4-tetrahydroisoquinolin-6-yl]-N-(4-hydroxyphenyl)-1,2-dimethyl-1H-pyrrole-3-carboxamide] | 0.0048 | 5.21 | 0.0249
3.6 | 69.2 | 0.13 | 0.15 | 0.05 | 0.27 | 0.3 | 5.2 | Cc1cc(OCCN2CCOCC2)ccc1CC(=O)N1CCc2cc(-c3cc(C(=O)N(c4ccc(O)cc4)c4cc(C#N)n(C)c4C)c(C)n3C)c(C(=O)N3Cc4ccccc4C[C@H]3CN3CCCCC3)cc2C1 [Example 113, N-(5-cyano-1,2-dimethyl-1H-pyrrol-3-yl)-N-(4-hydroxyphenyl)-1,2-dimethyl-5-[2-(2-{2-methyl-4-[2-(morpholin-4-yl)ethoxy]phenyl}acetyl)-7-[(3S)-3-[(piperidin-1-yl)methyl]-1,2,3,4-tetrahydroisoquinoline-2-carbonyl]-1,2,3,4-tetrahydroisoquinolin-6-yl]-1H-pyrrole-3-carboxamide] | 0.0063 | 4.38 | 0.0278
2.1 | 30.9 | 0.16 | 0.14 | 0.07 | 0.19 | 0.4 | 5.1 | Cc1c(N(C(=O)c2cc(-c3cc4c(cc3C(=O)N3Cc5ccccc5C[C@H]3CN3CCCCC3)CN(C(=O)Cc3ccc(OCCN5CCOC(C)C5)cc3F)CC4)n(C)c2C)c2ccc(O)cc2)cc(C#N)n1C (single isomer, unassigned) [Example 108, N-(5-cyano-1,2-dimethyl-1H-pyrrol-3-yl)-5-[2-(2-{2-fluoro-4-[2-((2S or R)-2-methylmorpholin-4-yl)ethoxy]phenyl}acetyl)-7-[(3S)-3-[(piperidin-1-yl)methyl]-1,2,3,4-tetrahydroisoquinoline-2-carbonyl]-1,2,3,4-tetrahydroisoquinolin-6-yl]-N-(4-hydroxyphenyl)-1,2-dimethyl-1H-pyrrole-3-carboxamide] | 0.0066 | 5.85 | 0.0383
4.5 | 60.8 | 0.17 | 0.21 | 0.07 | 0.34 | 0.4 | 5.8 | Cc1c(N(C(=O)c2cc(-c3cc4c(cc3C(=O)N3Cc5ccccc5C[C@H]3CN3CCCCC3)CN(C(=O)Cc3ccc(OCC(C)N5CCOCC5)cc3F)CC4)n(C)c2C)c2ccc(O)cc2)cc(C#N)n1C (single isomer, unassigned) [Example 135, N-(5-cyano-1,2-dimethyl-1H-pyrrol-3-yl)-5-[2-(2-{2-fluoro-4-[(2S or R)-2-(morpholin-4-yl)propoxyphenyl}acetyl)-7-[(3S)-3-[(piperidin-1-yl)methyl]-1,2,3,4-tetrahydroisoquinoline-2-carbonyl]-1,2,3,4-tetrahydroisoquinolin-6-yl]-N-(4-hydroxyphenyl)-1,2-dimethyl-1H-pyrrole-3-carboxamide] | 0.0044 | 7.72 | 0.0339
7.7 | 64.2 | 0.38 | 0.37 | 0.12 | 0.49 | 0.7 | 5.4 | Cc1c(N(C(=O)c2cc(-c3cc4c(cc3C(=O)N3Cc5ccccc5C[C@H]3CN3CCC5(CC3)CC5)CN(C(=O)Cc3ccc(OCCN5CCOCC5)cc3F)CC4)n(C)c2C)c2ccc(O)cc2)cc(C#N)n1C [Example 126, 5-{7-[(3S)-3-({6-azaspiro[2.5]octan-6-yl}methyl)-1,2,3,4-tetrahydroisoquinoline-2-carbonyl]-2-(2-{2-fluoro-4-[2-(morpholin-4-yl)ethoxy]phenyl}acetyl)-1,2,3,4-tetrahydroisoquinolin-6-yl}-N-(5-cyano-1,2-dimethyl-1H-pyrrol-3-yl)-N-(4-hydroxyphenyl)-1,2-dimethyl-1H-pyrrole-3-carboxamide] | 0.0048 | 6.34 | 0.0303
